Source: patent EP0842933B1, “NOVEL NAPHTHYRIDINE DERIVATIVES” (SUMITOMO PHARMACEUTICALS COMPANY, LIMITED, priority 1995, dated 1996)

How the values were obtained:
ACAT [1] = assay: Assay of ACAT inhibitory activity in a specimen prepared from rabbit liver; type: biochemical, New Zealand white rabbit; conditions: enzyme specimen from liver of cholesterol-fed rabbit, [1-^14C]oleoyl-CoA and endogenous cholesterol
Method: 1. Assay of ACAT inhibitory activity in a specimen prepared from rabbit liver
An enzyme specimen ACAT was prepared according to the method disclosed in the literature: J. Lipid. Research, 30, 681-690, 1989, from the liver of New Zealand white rabbit which had been fed with 1 % cholesterol feed for one month. The ACAT activity was determined according to the method disclosed in the literature: J. Lipid Research. 24, 1127-1134, 1983, i.e., using radioactive [1-^14C]oleoyl-CoA and endogenous cholesterol contained in the liver microsome, and calculated from the radioactivity of the labeled cholesterol oleate.

ACAT [2] = biological target: T1, ACAT (Rattus norvegicus, UniProt O70536); assay: Assay of ACAT inhibitory activity in the macrophage derived from rat peritoneal; type: cell-based; conditions: 10^-6 M, radioactive oleic acid and exogenous cholesterol in liposome, read-out: ACAT inhibitory rate (%) 10^-6 M
T1 construct: endogenous in cells; host or cells: rat peritoneal macrophages (primary cells)
T1 sequence (O70536 1-545): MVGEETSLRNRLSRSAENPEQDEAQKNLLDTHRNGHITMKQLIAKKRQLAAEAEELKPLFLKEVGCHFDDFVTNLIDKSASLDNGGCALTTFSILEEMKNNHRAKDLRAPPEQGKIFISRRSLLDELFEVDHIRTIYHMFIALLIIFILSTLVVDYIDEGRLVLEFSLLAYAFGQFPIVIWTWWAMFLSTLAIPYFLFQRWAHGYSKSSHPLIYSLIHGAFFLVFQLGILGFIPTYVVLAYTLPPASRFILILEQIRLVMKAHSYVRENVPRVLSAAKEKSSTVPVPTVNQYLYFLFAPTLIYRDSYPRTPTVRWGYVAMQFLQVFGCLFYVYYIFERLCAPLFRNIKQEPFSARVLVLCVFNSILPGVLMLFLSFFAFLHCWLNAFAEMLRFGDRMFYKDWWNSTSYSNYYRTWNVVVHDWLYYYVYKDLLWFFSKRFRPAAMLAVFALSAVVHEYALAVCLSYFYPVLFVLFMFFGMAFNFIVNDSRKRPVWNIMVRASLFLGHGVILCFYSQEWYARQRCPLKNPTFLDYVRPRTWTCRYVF
Method: 2. Assay of ACAT inhibitory activity in the macrophage derived from rat peritoneal
The rat peritoneal-derived macrophage was prepared according to the method disclosed in the literature: Biochimica et Biophysica Acta, 1126, 73-80, 1992. The ACAT activity was determined by a modified method of the method disclosed in the above literature: Biochimica et Biophysica Acta, 1126, 73-80, 1992, i.e., using radioactive [9,10-H]oleic acid and exogenous cholesterol contained in the liposome which was re-constituted according to the method disclosed in the literature: Biochimica Biophysica Acta, 1213, 127-134, 1994, and calculated from the labeled cholesterolyl oleate.

| inhibition at 1 µM (ACAT [2]) [%] | Structure (SMILES) | ACAT inhibitory rate (%) 10^-6 M (ACAT [1]) [%] |
| --- | --- | --- |
| 88 | CC(C)c1cccc(C(C)C)c1NC(=O)Nc1c(-c2ccccc2Cl)c2cccnc2n(C)c1=O [Example 4, N-[1-methyl-4-(2-chlorophenyl)-1,2-dihydro-2-oxo-1,8-naphthyridin-3-yl]-N'-(2,6-diisopropylphenyl)urea] | 87 |
| 94 | COc1cccc(-c2c(NC(=O)Nc3c(C(C)C)cccc3C(C)C)c(=O)n(C)c3ncccc23)c1 [Example 7, N-[1-methyl-4-(3-methoxyphenyl)-1,2-dihydro-2-oxo-1,8-naphthyridin-3-yl]-N'-(2,6-diisopropylphenyl)urea] | – |
| – | CC(C)c1cccc(C(C)C)c1NC(=O)Nc1c(-c2ccccc2Cl)c2ccncc2n(C)c1=O [Example 6, N-[1-methyl-4-(2-chlorophenyl)-1,2-dihydro-2-oxo-1,7-naphthyridin-3-yl]-N'-(2,6-diisopropylphenyl)urea] | 82 |
